# According to PubChem BioAssay AID330 (DTP/NCI, 2004):
# Several values for one entry are separate records, joined by “and”; a condition that tells them apart may be missing. Identical values can stand only once. Inconclusive results and toxic doses are left out.
# System: P388 leukemia ip, CD2F1 mice, survival T/C
# Assay: NCI In Vivo Anticancer Drug Screen. Data for tumor model P388 Leukemia (intraperitoneal) in CD2F1 (CDF1) mice
# Settings: endpoint: median survival time, higher = longer survival
# Procedure, shortened: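 Mice carrying the transplanted tumor received test compound or vehicle. Survival was recorded in each group, and the value is the treated-group measurement divided by that of the vehicle-treated control group.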
# [1] = dose: 50.0 mg/kg/injection, schedule: Q01DX005 (ip), vehicle: saline
# [2] = dose: 60.0 mg/kg/injection, schedule: Q01DX005 (ip), vehicle: saline
# [3] = dose: 120.0 mg/kg/injection, schedule: Q01DX005 (ip), vehicle: saline
# [4] = dose: 240.0 mg/kg/injection, schedule: Q01DX005 (ip), vehicle: saline
# [5] = dose: 50.0 mg/kg/injection, schedule: Q01DX005 (ip), vehicle: saline with Tween-80
# [6] = dose: 100.0 mg/kg/injection, schedule: Q01DX005 (ip), vehicle: saline with Tween-80
# [7] = dose: 200.0 mg/kg/injection, schedule: Q01DX005 (ip), vehicle: saline with Tween-80
# [8] = dose: 60.0 mg/kg/injection, schedule: Q01DX005 (ip), vehicle: saline with Tween-80
# [9] = dose: 120.0 mg/kg/injection, schedule: Q01DX005 (ip), vehicle: saline with Tween-80
structure (smiles),measurement,setting,value
CCCCC(C)N(CCNc1cc(OC)cc2cccnc12)CC(C)C (stereo not given),T/C,"dose: 12.5 mg/kg/injection, schedule: Q01DX005 (ip), vehicle: saline",106 % of control
same,T/C,"dose: 25.0 mg/kg/injection, schedule: Q01DX005 (ip), vehicle: saline",101 % of control
same,T/C,[1],106 % of control and 97 % of control
C#CCCCOC1CCCCO1 (stereo not given),T/C,[2],100 % of control
same,T/C,[3],100 % of control
same,T/C,[4],100 % of control
CC(C)CCCCCc1ccc(OCCOc2ccc(C(=O)Nc3ccc(S(=O)(=O)F)cc3N)cc2)cc1,T/C,"dose: 50.0 mg/kg/injection, schedule: Q04DX003 (ip), vehicle: saline sonified",100 % of control
same,T/C,"dose: 100.0 mg/kg/injection, schedule: Q04DX003 (ip), vehicle: saline sonified",100 % of control
same,T/C,"dose: 200.0 mg/kg/injection, schedule: Q04DX003 (ip), vehicle: saline sonified",90 % of control
CC(C)C(=O)OCC(C)(C)C(OC(=O)COc1ccc(Cl)cc1Cl)C(C)C (stereo not given),T/C,[5],101 % of control
same,T/C,[6],106 % of control
same,T/C,[7],97 % of control
CC(=O)NCCc1nc(-c2nc(C(=O)NCCCCN)cs2)cs1,T/C,"dose: 12.5 mg/kg/injection, schedule: Q01DX009 (ip), vehicle: water",100 % of control
same,T/C,"dose: 25.0 mg/kg/injection, schedule: Q01DX009 (ip), vehicle: water",98 % of control and 109 % of control
same,T/C,"dose: 50.0 mg/kg/injection, schedule: Q01DX009 (ip), vehicle: water",100 % of control and 113 % of control
same,T/C,"dose: 100.0 mg/kg/injection, schedule: Q01DX009 (ip), vehicle: water",103 % of control and 119 % of control
same,T/C,"dose: 200.0 mg/kg/injection, schedule: Q01DX009 (ip), vehicle: water",107 % of control
same,T/C,"dose: 400.0 mg/kg/injection, schedule: Q01DX009 (ip), vehicle: water",104 % of control
Cn1c(=O)c2c(nc(CF)n2C)n(C)c1=O,T/C,"dose: 100.0 mg/kg/injection, schedule: Q01DX001 (ip), vehicle: saline",92 % of control
same,T/C,"dose: 200.0 mg/kg/injection, schedule: Q01DX001 (ip), vehicle: saline",96 % of control
Nc1nc(-c2ccccn2)cc2cc(Cl)ccc12,T/C,[8],99 % of control
same,T/C,[9],115 % of control
O=C(NNC(O)C(F)(F)F)c1ccccc1 (stereo not given),T/C,"dose: 100.0 mg/kg/injection, schedule: Q04DX003 (ip), vehicle: Klucel (hydroxypropylcellulose) (HPC)",103 % of control
same,T/C,"dose: 200.0 mg/kg/injection, schedule: Q04DX003 (ip), vehicle: Klucel (hydroxypropylcellulose) (HPC)",103 % of control
same,T/C,"dose: 400.0 mg/kg/injection, schedule: Q04DX003 (ip), vehicle: Klucel (hydroxypropylcellulose) (HPC)",110 % of control
CCCCCCCC(=O)C1C(=O)OC(C)(C)OC1=O,T/C,[8],100 % of control
same,T/C,[9],100 % of control
O=C(N=Nc1c(O)[nH]c2ccccc12)C(F)(F)F,T/C,[5],108 % of control
same,T/C,[6],101 % of control
same,T/C,[7],108 % of control
Cn1c(=O)c(CCCC(=O)O)nc2ccccc21,T/C,"dose: 100.0 mg/kg/injection, schedule: Q04DX002 (ip), vehicle: saline with Tween-80",97 % of control
same,T/C,"dose: 200.0 mg/kg/injection, schedule: Q04DX002 (ip), vehicle: saline with Tween-80",102 % of control
same,T/C,"dose: 400.0 mg/kg/injection, schedule: Q04DX002 (ip), vehicle: saline with Tween-80",107 % of control
COc1ccc(N=NS(=O)(=O)O)cn1,T/C,"dose: 3.12 mg/kg/injection, schedule: Q01DX009 (ip), vehicle: saline with Tween-80",93 % of control
same,T/C,"dose: 6.25 mg/kg/injection, schedule: Q01DX009 (ip), vehicle: saline with Tween-80",101 % of control
same,T/C,"dose: 12.5 mg/kg/injection, schedule: Q01DX009 (ip), vehicle: saline with Tween-80",108 % of control
same,T/C,"dose: 25.0 mg/kg/injection, schedule: Q01DX009 (ip), vehicle: saline with Tween-80",97 % of control
same,T/C,"dose: 50.0 mg/kg/injection, schedule: Q01DX009 (ip), vehicle: saline with Tween-80",99 % of control and 97 % of control
same,T/C,"dose: 100.0 mg/kg/injection, schedule: Q01DX009 (ip), vehicle: saline with Tween-80",94 % of control
same,T/C,"dose: 200.0 mg/kg/injection, schedule: Q01DX009 (ip), vehicle: saline with Tween-80",106 % of control
same,T/C,"dose: 400.0 mg/kg/injection, schedule: Q01DX009 (ip), vehicle: saline with Tween-80",101 % of control
O=C(O)c1ncnn1-c1ccccc1,T/C,[2],91 % of control
same,T/C,[3],96 % of control
same,T/C,[4],99 % of control
Cc1cc(Nc2ccc3c(c2)OCO3)c2cc3c(cc2n1)OCO3,T/C,"dose: 50.0 mg/kg/injection, schedule: Q01DX005 (ip), vehicle: Klucel (hydroxypropylcellulose) (HPC)",105 % of control and 107 % of control
same,T/C,"dose: 100.0 mg/kg/injection, schedule: Q01DX005 (ip), vehicle: Klucel (hydroxypropylcellulose) (HPC)",116 % of control
same,T/C,"dose: 200.0 mg/kg/injection, schedule: Q01DX005 (ip), vehicle: Klucel (hydroxypropylcellulose) (HPC)",165 % of control and 178 % of control
COc1cccc2c1C(=O)c1c(O)c3c(c(O)c1C2=O)CC(O)(C(C)=O)CC3OC1CC(N)C(O)C(C)O1 (stereo not given) (tested in a mixture with another compound),T/C,"dose: 4.69 mg/kg/injection, schedule: Q04DX003 (ip), vehicle: water",105 % of control and 110 % of control and 114 % of control
same,T/C,"dose: 9.38 mg/kg/injection, schedule: Q04DX003 (ip), vehicle: water",114 % of control and 124 % of control and 112 % of control
same,T/C,"dose: 9.4 mg/kg/injection, schedule: Q04DX003 (ip), vehicle: water",118 % of control and 103 % of control
same,T/C,"dose: 18.75 mg/kg/injection, schedule: Q04DX003 (ip), vehicle: water",114 % of control and 112 % of control and 116 % of control
same,T/C,"dose: 37.5 mg/kg/injection, schedule: Q04DX003 (ip), vehicle: water",114 % of control and 124 % of control and 118 % of control
same,T/C,"dose: 75.0 mg/kg/injection, schedule: Q04DX003 (ip), vehicle: water",109 % of control [middle of 6 runs]
same,T/C,"dose: 150.0 mg/kg/injection, schedule: Q04DX003 (ip), vehicle: water",91 % of control and 98 % of control
Cc1cc(C)cc(C(O)(CBr)CC(C)(Cl)Cl)c1 (stereo not given),T/C,"dose: 50.0 mg/kg/injection, schedule: Q01DX009 (ip), vehicle: saline + alcohol",114 % of control
same,T/C,"dose: 100.0 mg/kg/injection, schedule: Q01DX009 (ip), vehicle: saline + alcohol",119 % of control
same,T/C,"dose: 200.0 mg/kg/injection, schedule: Q01DX009 (ip), vehicle: saline + alcohol",120 % of control
CC(NN(C)C(=S)Nc1ccccc1)c1ccccn1 (stereo not given),T/C,[5],100 % of control
same,T/C,[6],103 % of control
same,T/C,[7],109 % of control
C=CC(=NC(C)(C)C)Nc1ccccc1OC,T/C,"dose: 1.56 mg/kg/injection, schedule: Q01DX009 (ip), vehicle: saline",99 % of control and 89 % of control
same,T/C,"dose: 3.12 mg/kg/injection, schedule: Q01DX005 (ip), vehicle: Klucel (hydroxypropylcellulose) (HPC)",117 % of control
same,T/C,"dose: 3.12 mg/kg/injection, schedule: Q01DX009 (ip), vehicle: saline",111 % of control and 86 % of control and 98 % of control
same,T/C,"dose: 6.25 mg/kg/injection, schedule: Q01DX005 (ip), vehicle: Klucel (hydroxypropylcellulose) (HPC)",117 % of control
same,T/C,"dose: 6.25 mg/kg/injection, schedule: Q01DX009 (ip), vehicle: saline",102 % of control and 120 % of control and 95 % of control
same,T/C,"dose: 12.5 mg/kg/injection, schedule: Q01DX005 (ip), vehicle: Klucel (hydroxypropylcellulose) (HPC)",114 % of control
CCOC(=O)/C(C#N)=C/NCC1CC1,T/C,"dose: 60.0 mg/kg/injection, schedule: Q01DX005 (ip), vehicle: Klucel (hydroxypropylcellulose) (HPC)",102 % of control
same,T/C,"dose: 120.0 mg/kg/injection, schedule: Q01DX005 (ip), vehicle: Klucel (hydroxypropylcellulose) (HPC)",98 % of control
same,T/C,"dose: 240.0 mg/kg/injection, schedule: Q01DX005 (ip), vehicle: Klucel (hydroxypropylcellulose) (HPC)",98 % of control
O=C1C(Cl)=C(Nc2ccccc2)C(O)N1c1ccccc1 (stereo not given),T/C,[5],103 % of control
same,T/C,[6],96 % of control
same,T/C,[7],92 % of control
Clc1cc2c(nn1)-c1ccccc1C2,T/C,[5],100 % of control
same,T/C,[6],105 % of control
same,T/C,[7],100 % of control
CCCCCC(=N\N=C(N)N)/C(C)=N/N=C(N)N,T/C,"dose: 12.5 mg/kg/injection, schedule: Q01DX005 (ip), vehicle: saline with Tween-80",98 % of control
same,T/C,"dose: 25.0 mg/kg/injection, schedule: Q01DX005 (ip), vehicle: saline with Tween-80",97 % of control
same,T/C,[5],101 % of control
same,T/C,[1],100 % of control
CC(=O)OCC(=O)[C@@]12OC(C)(C)O[C@@H]1C[C@H]1[C@@H]3CC(C=O)=C4C=C(OCCCl)CC[C@]4(C)[C@@]3(F)[C@@H](O)C[C@@]12C,T/C,"dose: 0.39 mg/kg/injection, schedule: Q01DX009 (ip), vehicle: Klucel (hydroxypropylcellulose) (HPC)",106 % of control
same,T/C,"dose: 0.78 mg/kg/injection, schedule: Q01DX009 (ip), vehicle: Klucel (hydroxypropylcellulose) (HPC)",113 % of control
same,T/C,"dose: 1.56 mg/kg/injection, schedule: Q01DX009 (ip), vehicle: Klucel (hydroxypropylcellulose) (HPC)",115 % of control
COc1ccc2cc(C(=O)c3ccccc3)c(=O)oc2c1,T/C,[8],93 % of control
same,T/C,[9],96 % of control
same,T/C,"dose: 240.0 mg/kg/injection, schedule: Q01DX005 (ip), vehicle: saline with Tween-80",96 % of control
